The source of these data is patent US20150323520A1, “DIAGNOSIS OF KIDNEY TRANSPLANT ACUTE REJECTION” (The Trustees of the Stevens Institute of Technology, priority 2014, published 2015).

The data set is described as follows: Mannitol in urine of kidney transplant patients the day after surgery (SERS / ESI-MS). It counts as in vivo. An excerpt: FIG. 2 is a graph 200 showing SERS spectra for patients who have received kidney transplants and are experiencing AR. The graph 200 plots Raman intensity, in arbitrary units (“a.u.”), along a vertical axis 210 against Raman shift, in cm^−1, along a horizontal axis 220. As a baseline, the chart 200 includes a background spectrum 230 that may be measured when a SERS sensor (e.g., the device 100 of FIG. 1) is immersed in water. The chart 200 also includes three SERS spectra 240, 250, 260 that may be measured when the same SERS sensor is immersed in urine samples of three AR patients. It may be observed that each of the three SERS spectra 240, 250, 260 includes a corresponding peak 242, 252, 262, at a value of about 1360 cm^−1 along the horizontal axis 220. FIG. 3 is a graph 300 showing SERS spectra for patients who have received kidney transplants and are not experiencing AR. The graph 300 plots Raman intensity, in arbitrary units (“a.u.”), along a vertical axis 310 against Raman shift, in cm^−1, along a horizontal axis 320. As a baseline, the chart 300 includes a background spectrum 330 that may be measured when a SERS sensor (e.g., the device 100 of FIG. 1) is immersed in water (e.g., the same background spectrum as is shown in FIG. 2). The chart 300 also includes three SERS spectra 340, 350, 360 that may be measured when the same SERS sensor is immersed in urine samples of three kidney transplant recipients who are not experiencing AR. It may be observed that the three SERS spectra 340, 350, 360 lack a peak at a value of 1360 cm^−1 along the horizontal axis 320. […] The chart 500 includes a SERS spectrum 530 measured when a SERS sensor (e.g., the device 100 of FIG. 1) is immersed in a urine sample of a kidney transplant recipient who is experiencing graft failure. […] The spectra 610, 620, 630 plot intensity, an expression of relative abundance expressed as a percentage, along a vertical axis 640 against mass-to-charge ratio m/z, an expression of the ratio of atomic mass to charge number, which is a dimensionless quantity, along a horizontal axis 650. […]

Consider `OC[C@@H](O)[C@@H](O)[C@H](O)[C@H](O)CO` [mannitol], for which the “mannitol in the urine” value (patients experiencing acute rejection (AR), urine 24 hours after surgery, mannitol (e.g., 20 grams) given during kidney transplant surgery) is “high levels”. Moreover, the metabolism of mannitol entry (patients experiencing graft failure, SERS peak at 1360 cm^-1 in urine (FIG. 5)) is “do not metabolize mannitol well”. Further, the “mannitol in patients' urine” value (transplant patients whose surgery is successful (no AR), urine 24 hours after surgery, mannitol (e.g., 20 grams) given during kidney transplant surgery) is reported as “barely detectable”.
